Experimental data published in publication PMC4685510, “A Cell Biologist’s Field Guide to Aurora Kinase Inhibitors” (Frontiers in Oncology, 2015).

Tests used:
[1] = test system: pH3(Ser 28) in HeLa cells; assay: Substrate phosphorylation immunofluorescence assay, pH3(Ser 28), HeLa; format: cell-based, human; conditions: 8 h inhibitor treatment
Description: After 8 h cells were fixed with 4% PFA for 20 min at room temperature. The fixed cells were washed with PBS. For immunostaining, cells were permeabilized and blocked with PBS containing 10% normal donkey serum (Jackson ImmunoResearch) and 0.1% Triton-X100 for 1 h at room temperature. Primary antibodies against phospho-LATS2 (Ser 83), phospho-histone H3(Ser 28), and anti-phospho-MPM2 (see Table S3 in Supplementary Material) were incubated for 1 h at room temperature. […] Cells were then washed twice with PBS containing 0.1% Triton-X100. […] Fifty fields per well were imaged with quadruplicate wells for each condition. Image analysis was done using the CV7000 image analysis software (Yokogawa Electric Corporation). Between 100 and 1,000 mitotic cells per condition were segmented applying object identification parameters to select for bright MPM2 labeling. Using a nuclear identifier protocol, minimum intensity thresholds were set for pLATS2(Ser 83) and the pH3(Ser 28) signals, and the resulting identified objects were eroded, dilated, and filtered for size by user-defined thresholds. […] The same thresholds were applied for all of the inhibitor-treated samples, which were processed, imaged, and analyzed in parallel with control DMSO-treated cells. Data were fit using a four-parameter, variable slope fit in Prism (GraphPad).

[2] = molecular target: T1, full-length human Aurora A (Homo sapiens, UniProt O14965); assay: Aurora A kinase assay (ADP-Glo, Kemptide substrate)
T1 sequence (O14965 1-403): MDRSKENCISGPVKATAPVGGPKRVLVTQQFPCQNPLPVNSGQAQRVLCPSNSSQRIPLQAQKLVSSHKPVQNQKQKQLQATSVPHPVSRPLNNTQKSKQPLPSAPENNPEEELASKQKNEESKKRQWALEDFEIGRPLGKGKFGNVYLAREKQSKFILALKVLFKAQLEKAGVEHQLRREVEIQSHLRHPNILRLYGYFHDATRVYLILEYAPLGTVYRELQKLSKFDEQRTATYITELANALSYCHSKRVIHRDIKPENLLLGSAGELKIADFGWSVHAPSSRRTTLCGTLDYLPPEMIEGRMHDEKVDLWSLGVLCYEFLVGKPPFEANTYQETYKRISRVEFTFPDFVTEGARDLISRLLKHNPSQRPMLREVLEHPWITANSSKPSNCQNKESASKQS

Aurora B = conditions: ref 59; read-out: Aurora B IC50 (Published); cited from earlier work
[3] = test system: pLATS2(Ser 83) in HeLa cells; assay: Substrate phosphorylation immunofluorescence assay, pLATS2(Ser 83), HeLa; format: cell-based, human; conditions: Homo sapiens, HeLa, 8 h, read-out: pLATS2 (Ser83) IC50, HeLa; 8 h inhibitor treatment
Description: We employed the protocol described in Figure 3D to analyze substrate phosphorylation in HeLa cells following treatment with all 10 inhibitors in dose–response. Asynchronous cells were incubated with vehicle (DMSO) or different inhibitor doses for 8 h and then fixed and labeled with a mixture of three antibodies directed against pLATS2(Ser 83), pH3(Ser 28), and MPM2 [which detects mitotic phosphoepitopes; ([86])]. While both the anti-pLATS2(Ser 83) and MPM2 antibodies are mouse monoclonals, they are of different IgG subclasses [IgG2b for anti-pLATS2(Ser 83) and IgG1 for MPM2], and can thus be detected with subclass-specific secondary antibodies (Table S3 in Supplementary Material).
In control mitotic cells, pLATS2(Ser 83) is concentrated in foci around the spindle poles (Figure 3E; top row – green arrow) and pH3(Ser 28) is on the mitotic chromatin (Figure 3E; top row – red arrow). Selective kinase inhibition should result in loss of one signal but not the other, as illustrated by the example images for specific conditions in Figure 3E (middle and bottom rows). Cells were imaged in 4 channels to visualize pLATS2(Ser 83), pH3(Ser 28), MPM2, and DNA (labeled with Hoechst) and mitotic cells were segmented based on their bright MPM2 labeling (Figure 3E). Intensity and area thresholds were set to select the pLATS2(Ser 83) foci and the pH3(Ser 28)-labeled chromatin in their respective channels in DMSO-treated control cells and the same thresholds were applied for inhibitor-treated cells. The mean fluorescence intensity per pixel was measured to assess the activities of the kinases targeting these two substrate phosphorylation sites.
Twelve thousand HeLa cells, 10,000 U2OS cells, or 8,000 RPE1 cells were seeded into 96-well glass-bottom Sensoplates (Greiner) 16 h before inhibitor addition. Prior to seeding, the glass-bottom plates were coated with poly-L-lysine (Sigma). […] After 8 h cells were fixed with 4% PFA for 20 min at room temperature. The fixed cells were washed with PBS. For immunostaining, cells were permeabilized and blocked with PBS containing 10% normal donkey serum (Jackson ImmunoResearch) and 0.1% Triton-X100 for 1 h at room temperature. Primary antibodies against phospho-LATS2 (Ser 83), phospho-histone H3(Ser 28), and anti-phospho-MPM2 (see Table S3 in Supplementary Material) were incubated for 1 h at room temperature. […] Cells were then washed twice with PBS containing 0.1% Triton-X100. Image acquisition in four channels was performed using a CV7000 spinning disk confocal system (Yokogawa Electric Corporation) with a 40 × 0.95 NA U-PlanApo objective and 2560 × 2160 pixel sCMOS camera. […] Fifty fields per well were imaged with quadruplicate wells for each condition. Image analysis was done using the CV7000 image analysis software (Yokogawa Electric Corporation). Between 100 and 1,000 mitotic cells per condition were segmented applying object identification parameters to select for bright MPM2 labeling. Using a nuclear identifier protocol, minimum intensity thresholds were set for pLATS2(Ser 83) and the pH3(Ser 28) signals, and the resulting identified objects were eroded, dilated, and filtered for size by user-defined thresholds. For only the MPM2-positive mitotic cells, the mean fluorescence intensity of the identified pLATS2(Ser 83) and pH3(Ser 28) objects was measured, and the average intensity per cell per well was calculated. The same thresholds were applied for all of the inhibitor-treated samples, which were processed, imaged, and analyzed in parallel with control DMSO-treated cells. Data were fit using a four-parameter, variable slope fit in Prism (GraphPad). Primary and secondary antibody dilutions can be found in Table S3 in Supplementary Material.

Aurora A/TPX2^1–43 = molecular target: T2, Aurora A/TPX2^1–43 (Homo sapiens, UniProt O14965); assay: Aurora A/TPX2^1–43 kinase assay (ADP-Glo)
T2 sequence (O14965 1-403): T1 sequence (O14965 1-403)
T2 sequence (Q9ULW0 1-43 partner limits assumed): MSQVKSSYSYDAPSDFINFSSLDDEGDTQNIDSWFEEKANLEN

Aurora B/INCENP^783–918 = molecular target: T3, Aurora B/INCENP^783–918 (Homo sapiens, UniProt Q96GD4); assay: Aurora B/INCENP^783–918 kinase assay (ADP-Glo); format: biochemical
T3 construct: purchased SignalChem
T3 sequence (Q96GD4 whole entry): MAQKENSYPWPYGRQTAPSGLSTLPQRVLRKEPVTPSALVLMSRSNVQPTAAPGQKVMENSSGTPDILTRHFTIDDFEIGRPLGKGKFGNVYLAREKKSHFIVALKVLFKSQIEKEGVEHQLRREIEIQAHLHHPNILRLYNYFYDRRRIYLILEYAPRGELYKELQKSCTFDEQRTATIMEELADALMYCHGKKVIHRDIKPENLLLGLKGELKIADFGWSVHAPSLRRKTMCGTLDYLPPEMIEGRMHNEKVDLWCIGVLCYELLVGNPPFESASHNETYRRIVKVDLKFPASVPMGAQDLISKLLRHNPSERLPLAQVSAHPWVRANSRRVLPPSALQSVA
T3 sequence (Q9NQS7 783-918 partner limits assumed): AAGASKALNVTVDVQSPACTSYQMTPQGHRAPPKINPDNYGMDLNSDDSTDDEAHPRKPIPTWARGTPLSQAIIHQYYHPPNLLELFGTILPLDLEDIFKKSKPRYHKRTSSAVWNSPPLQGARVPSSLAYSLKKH

[4] = test system: HeLa, RPE1, and U2OS cells; assay: Cellular proliferation analysis (ATPLite, 24 h)
HeLa cells = assay: Live cell-activated caspase 3/7 assay; format: cell-based, human; conditions: within 24 h of treatment
Description: HeLa cells (6,000/well) were seeded in 96-well μCLEAR plates (Greiner) in 100 μL DMEM plus serum, and incubated for 16 h at 37°C and 5% CO2. […] After 24 h 2 μM CellEvent Caspase-3/7 Green Reagent (Life Technologies), and NucBlue Live ReadyProbes Reagent (Hoechst 33342; Life Technologies) were added. Cells were imaged after 60 min on a CV7000 spinning disk confocal system (Yokogawa Electric Corporation) with a 20 × 0.75 NA U-PlanApo objective and 2560 × 2160 sCMOS camera with 2 × 2 binning. The imaging chamber was maintained at 37°C and 5% CO2. Six to eight fields/well were imaged, with duplicate wells for each condition. 3 μm × 2 μm z-sections in the blue (40% power, 300 ms, 35% gain) and green (40% power, 300 ms, 35% gain) channels were captured in each field. The apoptotic fraction was calculated by dividing the number of cells fluorescing at 530 nm (corresponding to the cleaved caspase reporter reagent) by the number of nuclei (Hoechst staining). Image analysis was done using the CV7000 image analysis software (Yokogawa Electric Corporation).

Aurora A = conditions: ref 59; read-out: Aurora A IC50 (Published); cited from earlier work
[5] = fold difference in potency calculated by dividing Ki values

CCN1CCN(C(=O)Cc2ccc(Nc3ncc(F)c(Nc4ccc(C(=O)Nc5ccccc5Cl)cc4)n3)cc2)CC1 [Genentech Aurora Inhibitor 1]
pHistone H3 (Ser28) IC50 [1]: NE@9 μM | pHistone H3 (Ser28) IC50 ([1]; listed as Genentech Aurora Inh 1): NE (9 μM) | Ki ([2]; Aurora A Ki Mean ± SD, [ATP] = Km(ATP) (35 μM), Ki calculated from IC50 with tight-binding equation): 0.00057 ± 6e-05 µM | Selectivity ratio Aur A versus Aur A-TPX2^1–43 [2, 5]: 0.4 fold | Selectivity ratio Aur A versus Aur B-INCENP^783–918 [2, 5]: 274 fold | IC50 (Aurora B): 3.4 µM | IC50 [3]: 0.49 µM | Ki (Aurora A/TPX2^1–43): 0.00024 ± 2e-05 µM | Increase of affinity for Aurora A by TPX2^1–43 (Aurora A/TPX2^1–43; Aurora A Ki versus Aurora A/TPX2^1–43 Ki): 2.5 fold | Selectivity ratio Aur A-TPX2^1–43 versus Aur B-INCENP^783–918 (Aurora A/TPX2^1–43; [5]): 654 fold | Ki (Aurora B/INCENP^783–918): 0.156 ± 0.0337 µM | Toxicity / cytotoxicity (cellular proliferation) ([4]; HeLa, RPE1, U2OS, 24 h (Figure 4D, Figure S2B)): cytotoxic | Effect on proliferation ([4]; HeLa, within 24 h of treatment): significantly reduced proliferation | Toxicity (reduced proliferation) ([4]; U2OS and RPE1 cells, 24 h): toxicity | Apoptosis (HeLa cells): apoptotic cell death | IC50 (Aurora A): 0.0034 µM
